Patent US20250152659A1, “METHOD FOR PREVENTING OR TREATING PARKINSON'S DISEASE” (Suzhou Mingren Pharmaceutical Biotechnology Co., Ltd., priority 2022, published 2025)
Where a SMILES comes first, the peptide text is derived from it. [ ]: non-standard residue; d: D form. pS = N[C@@H](COP(=O)(O)O)C(=O)O

Columns and labels:
HT-22 cells = experiment: CCK8 cell viability assay, rotenone toxicity; type: cell-based, mouse; conditions: Rot 2.5 μM and JP1 25, 50, 100 μM, 24 and 48 hours, dose-dependent
Description: (§1) The example is to evaluate the protective effects of JP1 on the viability of mouse hippocampal neuronal cells HT-22 and human […] cells (SH-SYSY) induced by Rotenone (Rot) (CCK8 assay).
(§2) 1) Cell culture and treatment: The human neuroblastoma cell line SH-SYSY and the mouse hippocampal neuron cell line HT-22 were cultured in DMEM medium containing 100 µg/mL streptomycin, 100 U/mL penicillin, and 10% fetal bovine serum at 37° C. in a 5% CO2 environment. The cells were treated with Rotenone (2.5 μM) and JWA targeting peptide JP1 (0, 25, 50, 100 μM) for 24 and 48 hours, respectively. Model cells were tested for cell viability using CCK8 assay, expression levels of inflammasome 3 (NLRP3) and apoptosis related proteins (PARP1, Cleaved caspase1, 3, 9) using Western Blot, and mitochondrial membrane potential (JC1) and intracellular reactive oxygen species (ROS) levels using immunofluorescence staining.
(§3) Cells were inoculated in a 96-well plate at a density of 8000 cells/well for adherence for 24 hours. The culture medium was discarded and the cells were incubated for 24 and 48 hours with different concentrations of the drug. […] The absorbance value was read by an enzyme immunoassay detector at 450 nm. The cell viability (3 parallel samples in each group, and repeat 3 times) was calculated.

SH-SYSY cells = experiment: CCK8 cell viability assay, rotenone toxicity; type: cell-based, human; conditions: Rot 2.5 μM and JP1 25, 50, 100 μM, 24 and 48 hours, dose-dependent
Description: as §1, §2, §3

[1] = background statement; cited from earlier work

N=C(N)NCCC[C@H](NC(=O)[C@H](Cc1ccccc1)NC(=O)[C@H](CCCNC(=N)N)NC(=O)[C@H](CC(=O)O)NC(=O)[C@H](COP(=O)(O)O)NC(=O)CNC(=O)[C@@H]1CCCN1C(=O)[C@@H](N)Cc1ccccc1)C(=O)NCC(=O)N[C@@H](CC(=O)O)C(=O)O [JP1] (H-FPG[pS]DRFRGD-OH)
cell viability, protection against cytotoxicity of Rot (HT-22 cells): significant protective effect | cell viability, protection against cytotoxicity of Rot (SH-SYSY cells): significant protective effect | crossing the blood-brain barrier [1]: can cross the blood-brain barrier
